Assay results as given in ChEMBL document CHEMBL4339234, “Synthesis and in vitro biological evaluation of new P2X7R radioligands [11C]halo-GSK1482160 analogs” (Bioorg Med Chem Lett, 2019).

What was measured:
P2X purinoceptor 7 [1] = target: T1, P2X purinoceptor 7 (Homo sapiens, UniProt Q99572); assay: Competitive displacement of [11C]GSK1482160 from human recombinant P2X7 receptor expressed in HEK293 cell membranes incubated for 30 mins by scintillation counting method based radioligand competitive binding assay
T1 sequence (Q99572 whole entry): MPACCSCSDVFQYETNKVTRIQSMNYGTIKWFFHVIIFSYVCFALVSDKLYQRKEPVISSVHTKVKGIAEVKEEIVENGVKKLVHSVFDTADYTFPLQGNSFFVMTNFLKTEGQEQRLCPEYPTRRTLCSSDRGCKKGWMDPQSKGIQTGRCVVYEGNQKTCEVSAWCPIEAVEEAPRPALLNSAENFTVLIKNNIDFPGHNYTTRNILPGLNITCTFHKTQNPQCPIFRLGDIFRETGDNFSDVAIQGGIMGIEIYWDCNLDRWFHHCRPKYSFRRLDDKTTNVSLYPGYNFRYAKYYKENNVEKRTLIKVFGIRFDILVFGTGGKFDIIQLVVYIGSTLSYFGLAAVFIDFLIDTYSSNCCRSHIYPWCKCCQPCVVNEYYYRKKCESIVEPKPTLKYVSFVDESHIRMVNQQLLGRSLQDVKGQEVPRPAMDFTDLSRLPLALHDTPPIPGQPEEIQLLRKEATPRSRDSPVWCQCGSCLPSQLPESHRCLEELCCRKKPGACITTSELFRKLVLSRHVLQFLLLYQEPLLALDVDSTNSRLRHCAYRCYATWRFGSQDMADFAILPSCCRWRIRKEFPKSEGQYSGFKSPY

P2X purinoceptor 7 [2] = target: T1, P2X purinoceptor 7; assay: Displacement of [11C]GSK1482160 from human recombinant P2X7 receptor expressed in HEK293 cell membranes incubated for 30 mins by scintillation counting method based radioligand competitive binding assay

| Compound | Ki (P2X purinoceptor 7 [1]) [nM] | IC50 (P2X purinoceptor 7 [2]) [nM] |
| --- | --- | --- |
| CN1C(=O)CC[C@H]1C(=O)NCc1cccc(C(F)(F)F)c1F | 54.2 | 153 |
| CN1C(=O)CC[C@H]1C(=O)NCc1cccc(C(F)(F)F)c1Br | 2.5 | 7.1 |
| CN1C(=O)CC[C@H]1C(=O)NCc1cccc(C(F)(F)F)c1I | 1.9 | 5.3 |
| CN1C(=O)CC[C@H]1C(=O)NCc1cccc(C(F)(F)F)c1Cl [GSK1482160] | 3.1 |  |
